Here are results for four molecules from patent publication US20100143994A1, “PROCESS FOR FERMENTIVE PREPARATION OF ALCOHOLS AND RECOVERY OF PRODUCT” (E. I. DU PONT DE MEMOURS AND COMPANY, priority 2008, published 2010).

The subject of series [1] is Saccharomyces cerevisiae (W1362 20A). Kind of series: Scale-up (25 mL broth) fermentation with ionic liquid, glucose uptake and ethanol production over five hours. The format is cell-based. The note with it: 5 volume percent ionic liquid, five hour time span, FIG. 2. The procedure:
Cultures were again prepared using the same growth conditions as described above except that the total broth volume was 25 mL. The selected ionic liquids were added to a container of each broth in an amount of 5 volume percent. In these experiments, small samples were withdrawn from the broth for HPLC analysis periodically over a five hour time span to get a better idea of the extent of metabolic activity after ionic liquid addition as well as to provide information on glucose consumption and product formation. […] The calculation of GUI was made as described above, and amount of ethanol produced was taken directly from the HPLC data.

Series [2] in a line: Extraction of ethanol from an aqueous solution by ionic liquid. The format is physicochemical. The note with it: 3 mL aqueous solution about 31 g/L ethanol, 5 vol % ionic liquid, overnight equilibration.
Procedure: (§1) Ethanol and isobutanol concentration in the solution was measured using HPLC as described above following thorough mixing and overnight equilibration of the contents of the vial.
Series [3] in a line: Extraction of isobutanol from an aqueous solution by ionic liquid. It counts as physicochemical. The settings on record: 3 mL aqueous solution about 31 g/L isobutanol, 5 vol % ionic liquid, overnight equilibration.
Procedure: as §1

For “1-ethyl-3-methylimidazolium bis(trifluoromethylsulfonyl)imide [Example 6]”, in series [1], the “ethanol production throughout the fermentation run” value was “remained robust” and the “glucose uptake (GUI) throughout the fermentation run” value (“glucose uptake” for short) was “remained robust”. The “Ethanol (mM) in solution after equilibration” value (“Ethanol (mM) in solution” below) in series [2] is 670 mM. For the same molecule, the “Isobutanol (mM) in solution after equilibration” value (shortened to “Isobutanol (mM) in solution”) in series [3] turned out to be 389 mM.
As to “1-butyl-3-methylpyrrolidinium bis(trifluoromethylsulfonyl)imide [Example 15]”, in series [1], the “ethanol production throughout the fermentation run” value was “remained robust” and the “glucose uptake” value was “remained robust”. Also, the “Ethanol (mM) in solution” value in series [2] stood at 676 mM. Also, the “Isobutanol (mM) in solution” value in series [3] is 391 mM.
With “1-hexyl-3-methylimidazolium bis(trifluoromethylsulfonyl)imide [Example 9]”, in series [1], the “ethanol production throughout the fermentation run” value was “remained robust” and the “glucose uptake” value is “remained robust”. In series [2], the “Ethanol (mM) in solution” value is 678 mM. In addition, the “Isobutanol (mM) in solution” value in series [3] is 388 mM.
For `CCCCCCn1cc[n+](C)c1.FC(F)(F)C(F)(F)[P-](F)(F)(F)(C(F)(F)C(F)(F)F)C(F)(F)C(F)(F)F` [Example 1, 1-hexyl-3-methylimidazolium tris(pentafluoroethyl)trifluorophosphate], in series [1], the “ethanol production throughout the fermentation run” value was “remained robust” and the “glucose uptake” value is recorded as “remained robust”. In series [2], the “Ethanol (mM) in solution” value was determined as 680 mM. The “Isobutanol (mM) in solution” value in series [3] is reported as 404 mM.
